Patent US9198909B1, “Materials and methods for inhibiting mamalian S-nitrosoglutathione reductase” (Indiana University Research and Technology Corporation, priority 2007, dated 2015)

Legend:
GSNOR•NADH complex = target: T1, GSNOR•NADH complex (Homo sapiens, UniProt P11766); assay: Fluorescence equilibrium binding to GSNOR•NADH complex; details: 1.7 μM NADH, 2 μM GSNOR, 50 μM compound 8
T1 construct: made in house; host or cells: E. coli
Procedure: Referring now to FIG. 2, (A) Changes in the fluorescence of NADH (curve a) upon sequential addition of GSNOR (curve b) and compound 8 (curve c). To a solution of 1.7 μM NADH were added 2 μM GSNOR and 50 μM compound 8 in sequence and the fluorescence of the solution measured each time (λexc=350 nm; λemm=375-550 nm); (B) Changes in the fluorescence of NADH (curve a) upon sequential addition of GSNOR (curve b), 12-HDDA (curve c) and compound 8 (curve d). To a solution of 1.7 μM NADH were added 2 μM GSNOR, 810 μM 12-HDDA and 50 μM compound 8 in sequence and the fluorescence measured each time (λexc=350 nm; λemm=375-550 nm); (C) Binding of compound 8 to GSNOR•NADH complex. The change in fluorescence of a 1.7 μM NADH and 2 μM GSNOR mixture (λexc=350 nm; λemm=455 nm) with increasing concentrations of compound 8 was fitted to a single site binding model (equation 1; see materials and methods) using the Graphpad Prizm 4. All of the fluorescence studies were conducted at room temperature in 50 mM potassium phosphate pH 7.5.
Referring now to Table 3, inhibition experiments were performed at 25° C. in 50 mM potassium phosphate (pH 7.5) including 0.1 mM EDTA. […] The dissociation constant was measured at 25° C. in 50 mM potassium phosphate pH 7.5. […]
Fluorescence studies were conducted in 50 mM potassium phosphate pH 7.5, at room temperature using a Fluoromax-2 fluorescence spectrometer (Instruments S.A., Inc., Edison, N.J.). The equilibrium dissociation constant of GSNOR inhibitors was determined by measuring the changes in the fluorescence of GSNOR bound NADH (λexc=350 nm; λemm=455 nm) upon the addition of inhibitor. […] The decrease in fluorescence at 455 nm with each addition of inhibitor was plotted against the final concentration of inhibitor and the data were fitted to equation 1 using nonlinear regression to obtain the dissociation constant of the inhibitor for GSNOR-NADH complex,
[formula] In equation 1, ΔF is the change in the fluorescence at 455 nm upon the addition of inhibitor. ΔFM is the maximum fluorescence change that was obtained from curve fitting. […]

RAW 264.7 cells = assay: Nitroso species accumulation in RAW 264.7 cells (triiodide chemiluminescence); assay type: cell-based, rat
Procedure: Referring now to FIG. 3, briefly, RAW 264.7 cells were incubated with 500 μM GSNO alone (γ) or in presence of 33 μM Compound 6 (◯) or 7 (Δ) or 8 (▪). At indicated times or at 4 hr (in case of B), the cells were lysed and the lysate was analyzed for protein and nitroso species concentration by Bradford and chemiluminescence assay, respectively. For details, see Materials and methods. Data represents mean±SE (n=3−12).
RAW 264.7 cells were cultured in DMEM medium supplemented with 10% FBS, 200 U/ml of penicillin and 200 μg/mL of streptomycin. The cells were incubated at 37° C. in an atmosphere containing 5% CO2 and 95% air. For the experiments, 1-2×10^6 cells were plated in six-well plates a day before the experiment. On the day of the assay the medium was replaced with 3 ml of fresh medium and the cells were treated with compounds for a predetermined length of time. Following the incubation period, the cells were washed three times with PBS and scraped off the plate in 250 μl of lysis buffer (50 mM potassium phosphate pH 7.0 containing 50 mM NEM and 1 mM EDTA). Cells were lysed by sonication using a micro tip probe (three pulses of 30% duty cycle; 2 output control on a Fisher Sonicator). Cell debris was pelleted by centrifugation (10 min at 16,000 g) and the cell lysate was analyzed for protein concentration using the Bio-Rad dye-binding protein assay. The concentration of nitroso compounds in the cell lysate was determined using the triiodide based chemiluminescence method using a Sievers 280 nitric oxide analyzer. Briefly, cell lysates were treated with 15% v/v of a sulfanilamide solution (5% w/v in 0.2 M HCl) and kept at room temperature for 5 min to remove nitrite. The triodide mixture was prepared fresh every day as described earlier and kept at 60° C. in the reaction vessel. The concentration of nitroso species was derived from a standard curve generated using GSNO. For determining the amount of the small size nitroso compounds in the cell lysate, a 5 kDa-cutoff Amicon ultra filtration unit was used according to the supplier's instructions. The amount of s-nitrosothiols in the cell lysate was determined by treating initially passing the cell lysate through a microspin column and treating the eluate with 5 mM HgCl2 before determining the nitroso compound concentration using chemiluminescence. For some experiments the cells were pretreated with the compounds for 16 hours prior to the day of experiment.

T1 sequence (P11766 2-374 limits assumed, one chain of several): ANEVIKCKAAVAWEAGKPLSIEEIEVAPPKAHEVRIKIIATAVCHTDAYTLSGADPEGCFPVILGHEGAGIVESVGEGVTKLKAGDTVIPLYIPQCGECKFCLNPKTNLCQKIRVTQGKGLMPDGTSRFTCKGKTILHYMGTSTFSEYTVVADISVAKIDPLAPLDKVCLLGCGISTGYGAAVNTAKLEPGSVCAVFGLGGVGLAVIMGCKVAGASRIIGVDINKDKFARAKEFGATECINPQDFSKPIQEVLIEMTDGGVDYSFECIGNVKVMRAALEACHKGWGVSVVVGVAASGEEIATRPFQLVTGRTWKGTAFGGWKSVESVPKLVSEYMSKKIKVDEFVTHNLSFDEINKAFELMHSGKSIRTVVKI

## N#Cc1ccccc1CSc1nc2ccsc2c(=O)n1Cc1ccc(C(=O)O)cc1 [Compound 8]
GSNOR•NADH complex
  effect on fluorescence of GSNOR bound NADH: decreased the fluorescence of NADH
GSNOR•NADH complex; 810 μM 12-HDDA
  effect on GSNOR•NADH•12-HDDA complex (displacement of 12-HDDA): displaced 12-HDDA from the active site
RAW 264.7 cells; 33 μM initial concentration, 500 μM GSNO, 4 hr
  nitrosylation, fold higher than Compound 7: 3 fold
RAW 264.7 cells; exposure up to 24 hours, data not shown
  decrease in nitrosylated species relative to amounts at 4 hours: 80%
